Experimental data from patent publication US8343696B2, “Colored curable composition, fluorine-containing dipyrromethene compound and tautomer thereof, and fluorine-containing dipyrromethene metal complex and tautomer thereof, and color filter using the same and method for producing the color filter” (FUJIFILM Corporation, priority 2008, dated 2013).

Key:
Assay type in all cases: physicochemical
[1] = Absorption spectrum in ethyl acetate solution (spectrophotometer UV-2400PC)
Procedure: In consideration of film thickness, the molar absorption coefficient of the specific metal complex compounds-1, -2, -3 and -4 of the invention is preferably as high as possible, and 60,000 or higher is preferable. The maximum absorption wavelength (λmax) thereof is preferably from 520 nm to 580 nm, and more preferably from 530 nm to 570 nm, in order to improve color purity. The maximum absorption wavelength and the molar absorption coefficient are determined by using a spectrophotometer UV-2400PC (manufactured by Shimadzu Corporation).
The molar absorption coefficient (ε) of each of the obtained compounds was measured in an ethyl acetate solution using a spectrophotometer (trade name: UV-2400PC; manufactured by Shimadzu Corporation). The absorbance (Abs) at 450 nm was evaluated by normalizing the absorbance at a maximum absorption wavelength (λmax) to 1.0. […] The measurement results of the absorbance (Abs value), maximum absorption wavelength (λmax), and molar absorption coefficient (ε) are shown in Table 1.
By the method similar to the reaction scheme in Synthesis Example 1 above, the exemplary compounds (dipyrromethene metal complex compounds or tautomers thereof) shown in Table 1 were synthesized. The identification of the compounds and the measurement of the maximum absorption wavelength (λmax) and the molar absorption coefficient (ε) of the compounds were performed similarly to Synthesis Example 1 above.

[2] = Storage stability of colored resist solution (precipitation after one month at room temperature); design: key: A: No precipitation was observed; B: Slight precipitation was observed; C: Precipitation was observed; details: negative-working colored resist solution, visual precipitation
From the text: 9.4 g of the resist solution obtained in section 1 above and 0.35 g of the exemplary compound Ia-12 synthesized above (a compound represented by Formula (4): dipyrromethene complex compound) were mixed and dissolved, whereby a colored resist solution (a negative-working ultraviolet-sensitive colored curable composition) was obtained.
The colored resist solution was stored for one month at room temperature, and then degree of precipitation was visually observed. The storage stability was evaluated according to the following criteria.
A: No precipitation was observed
B: Slight precipitation was observed
C: Precipitation was observed

[3] = Transmittance at 450 nm of the color filter; details: negative-working colored resist, 1.0 μm film; transmittance at λmax normalized to 2%
Procedure: The colored resist solution obtained in section 3 above was applied to an undercoat layer side of the glass substrate having an undercoat layer obtained in section 2 above by a spin coater such that a film thickness was 1.0 μm. Subsequently, the film was pre-baked at 100° C. for 120 sec, whereby a monochromatic color filter was obtained.
The transmission spectrum of the color filter obtained above was measured, and the transmittance at 450 nm was evaluated according to the following criteria. The transmittance of the color filter at 450 nm was evaluated by correcting (normalizing) the transmittance at the maximum absorption wavelength of the colorant included in the color filter to 2%. A larger transmittance indicates greater transmission of blue light, which indicates favorable magenta or violet color that can be used in a blue filter.
A: Transmittance at 450 nm was 90% or more
B: Transmittance at 450 nm was 80% or more but not more than 90%
C: Transmittance at 450 nm was not more than 80%

[4] = Heat resistance of coating film (color difference ΔEab before and after heating); details: 100° C. for 1 hour on hot plate
Procedure: A glass substrate having undercoat layer formed by applying the colored resin composition obtained in section 3 above was heat-treated at 100° C. for 1 hour using a hot plate, and the color difference (ΔEab) between before and after the heating was determined by using a […] MCPD-1000 (trade name, manufactured by Otsuka Electronics Co., Ltd.). The heat resistance was evaluated according to the following criteria. A smaller AEab value indicates better heat resistance.
(§1) A: ΔEab value was less than 6
(§2) B: ΔEab value was from 6 to 10
(§3) C: ΔEab value was more than 10

[5] = Light-fastness of coating film (color difference ΔEab before and after xenon lamp irradiation); details: xenon lamp 20,000 luxes for 10 hours (200,000 lux·h)
Procedure: A glass substrate having undercoat layer formed by applying the colored resin composition obtained in section 3 above was irradiated with a xenon lamp at an intensity of 20,000 luxes for 10 hours (equivalent to 200,000 lux·h), and the color difference ΔEab between before and after the irradiation was determined. The light-fastness was evaluated according to the following criteria. A smaller ΔEab value indicates better light-fastness.
as §1, §2, §3

SMILES | maximum absorption wavelength (λmax) [1] | molar absorption coefficient (ε) [1] | Abs value at 450 nm when normalized to Abs = 1.0 at λmax [1] | Storage stability [2] | Transmittance at 450 nm [3] | Heat resistance [4] | Light-fastness [5]
CC1CC(C(C)(C)C)C(OC(=O)c2c(-c3ccccc3)c3[n](c2NC(=O)c2cccc(C(F)(F)F)c2)[Zn-]([OH])[N+]2=C(NC(=O)C(C)Sc4cc(C(=O)O)cc(C(=O)O)c4)C(C#N)=C(c4ccccc4)C2=C3)C(C(C)(C)C)C1 (stereo not drawn) [Ib-15] | 562 nm | 87,100 | 0.0089 | A | A (Transmittance at 450 nm was 90% or more) | A (ΔEab value was less than 6) | A (ΔEab value was less than 6)
CC1=C(C(=O)OC2C(C(C)(C)C)CC(C)CC2C(C)(C)C)C(NC(=O)c2ccc(C(F)(F)F)cc2F)=[N+]2C1=Cc1c(C)c(C(=O)OC3C(C(C)(C)C)CC(C)CC3C(C)(C)C)c(NC(=O)c3ccc(C(F)(F)F)cc3F)[n]1[Zn-]2[OH] (stereo not drawn) [IIa-15] | 550 nm | 116,700 | 0.0095 | B | A (Transmittance at 450 nm was 90% or more) | A (ΔEab value was less than 6) | A (ΔEab value was less than 6)
CC1=C(C(=O)OC2C(C(C)(C)C)CC(C)CC2C(C)(C)C)C(NC(=O)c2c(F)c(F)c(O)c(F)c2F)=[N+]2C1=Cc1c(C)c(C(=O)OC3C(C(C)(C)C)CC(C)CC3C(C)(C)C)c(NC(=O)c3c(F)c(F)c(O)c(F)c3F)[n]1[Zn-]2[OH] (stereo not drawn) [IIa-39] | 553 nm | 109,400 | 0.0119 | A | A (Transmittance at 450 nm was 90% or more) | A (ΔEab value was less than 6) | A (ΔEab value was less than 6)
CC1CC(C(C)(C)C)C(OC(=O)C2=C(c3ccccc3)C3=Cc4c(-c5ccccc5)c(C(=O)OC5C(C(C)(C)C)CC(C)CC5C(C)(C)C)c(NC(=O)c5ccc(F)c(Br)c5)[n]4[Zn-]([OH])[N+]3=C2NC(=O)c2ccc(F)c(Br)c2)C(C(C)(C)C)C1 (stereo not drawn) [IIb-24] | 564 nm | 100,900 | 0.091 | B | A (Transmittance at 450 nm was 90% or more) | A (ΔEab value was less than 6) | A (ΔEab value was less than 6)
CC1=C(C(=O)OC2C(C(C)(C)C)CC(C)CC2C(C)(C)C)C(NC(=O)c2cccc(C(F)(F)F)c2)=[N+]2C1=Cc1c(C)c(C(=O)OC3C(C(C)(C)C)CC(C)CC3C(C)(C)C)c(NC(=O)c3cccc(C(F)(F)F)c3)[n]1[Zn-]2[OH] (stereo not drawn) [IIa-6] | 552 nm | 106,300 | 0.0127 | A | A (Transmittance at 450 nm was 90% or more) | A (ΔEab value was less than 6) | A (ΔEab value was less than 6)
CC1=C(C(=O)OC2C(C(C)(C)C)CC(C)CC2C(C)(C)C)C(NC(=O)c2ccc(F)c(F)c2)=[N+]2C1=Cc1c(C)c(C(=O)OC3C(C(C)(C)C)CC(C)CC3C(C)(C)C)c(NC(=O)c3ccc(F)c(F)c3)[n]1[Zn-]2[OH] (stereo not drawn) [IIa-13] | 550 nm | 121,300 | 0.0084 | A | A (Transmittance at 450 nm was 90% or more) | A (ΔEab value was less than 6) | A (ΔEab value was less than 6)
CC1=C(C(=O)OC2C(C(C)(C)C)CC(C)CC2C(C)(C)C)C(NC(=O)c2ccc(C(F)(F)F)cc2)=[N+]2C1=Cc1c(C)c(C(=O)OC3C(C(C)(C)C)CC(C)CC3C(C)(C)C)c(NC(=O)c3ccc(C(F)(F)F)cc3)[n]1[Zn-]2[OH] (stereo not drawn) [IIa-7] | 554 nm | 111,800 | 0.0089 | A | A (Transmittance at 450 nm was 90% or more) | A (ΔEab value was less than 6) | A (ΔEab value was less than 6)
CC1CC(C(C)(C)C)C(OC(=O)C2=C(c3ccccc3)C3=Cc4c(-c5ccccc5)c(C(=O)OC5C(C(C)(C)C)CC(C)CC5C(C)(C)C)c(NC(=O)c5cc(F)ccc5NS(C)(=O)=O)[n]4[Zn-]([OH])[N+]3=C2NC(=O)c2cc(F)ccc2NS(C)(=O)=O)C(C(C)(C)C)C1 (stereo not drawn) [IIb-20] | 565 nm | 121,000 | 0.082 | A | A (Transmittance at 450 nm was 90% or more) | A (ΔEab value was less than 6) | A (ΔEab value was less than 6)
CC1CC(C(C)(C)C)C(OC(=O)C2=C(c3ccccc3)C3=Cc4c(-c5ccccc5)c(C(=O)OC5C(C(C)(C)C)CC(C)CC5C(C)(C)C)c(NC(=O)c5cc(C(F)(F)F)cc(C(F)(F)F)c5)[n]4[Zn-]([OH])[N+]3=C2NC(=O)c2cc(C(F)(F)F)cc(C(F)(F)F)c2)C(C(C)(C)C)C1 (stereo not drawn) [IIb-14] | 560 nm | 117,400 | 0.01 | A | A (Transmittance at 450 nm was 90% or more) | A (ΔEab value was less than 6) | A (ΔEab value was less than 6)
CC1CC(C(C)(C)C)C(OC(=O)c2c(-c3ccccc3)c3[n](c2NC(=O)c2c(F)c(F)c(F)c(F)c2F)[Zn-]([OH])[N+]2=C(NC(=O)C(C)Sc4cc(C(=O)O)cc(C(=O)O)c4)C(C#N)=C(c4ccccc4)C2=C3)C(C(C)(C)C)C1 (stereo not drawn) [Ib-75] | 564 nm | 106,400 | 0.0099 | A | A (Transmittance at 450 nm was 90% or more) | A (ΔEab value was less than 6) | A (ΔEab value was less than 6)
Cc1c(C(=O)OC2C(C(C)(C)C)CC(C)CC2C(C)(C)C)c(NC(=O)c2ccc(F)c(F)c2)[n]2c1C=C1C(c3ccccc3)=C(C#N)C(NC(=O)C(C)Sc3cc(C(=O)O)cc(C(=O)O)c3)=[N+]1[Zn-]2[OH] (stereo not drawn) [Ia-35] | 559 nm | 90,100 | 0.0106 | A | A (Transmittance at 450 nm was 90% or more) | A (ΔEab value was less than 6) | A (ΔEab value was less than 6)
Cc1c(C(=O)OC2C(C(C)(C)C)CC(C)CC2C(C)(C)C)c(NC(=O)c2ccccc2C(F)(F)F)[n]2c1C=C1C(c3ccccc3)=C(C#N)C(NC(=O)C(C)Sc3cc(C(=O)O)cc(C(=O)O)c3)=[N+]1[Zn-]2[OH] (stereo not drawn) [Ia-12] | 560 nm | 81,400 | 0.0154 | A | A (Transmittance at 450 nm was 90% or more) | A (ΔEab value was less than 6) | A (ΔEab value was less than 6)
